# Data: patent US11447517B2, “Galactoside inhibitor of galectins” (GALECTO BIOTECH AB, priority 2018, dated 2022)
# pKd: −log10 of the molar value.
# Target: galectin-3 (Homo sapiens (Human), UniProt P17931)
# Test: Fluorescence anisotropy assay, inhibition of galectin / fluorescein tagged saccharide probe interaction
# Type: binding
# Experimental: Evaluation of Kd Values The affinity of Example 1-71 for galectins were determined by a fluorescence anisotropy assay where the compound was used as an inhibitor of the interaction between galectin and a fluorescein tagged saccharide probe as described Sörme, P., Kahl-Knutsson, B., Huflejt, M., Nilsson, U. J., and Leffler H. (2004) Fluorescence polarization as an analytical tool to evaluate galectin-ligand interactions. Anal. Biochem. 334: 36-47, (Sörme et al., 2004) and Monovalent interactions of Galectin-1 By Salomonsson, Emma; Larumbe, Amaia; Tejler, Johan; Tullberg, Erik; Rydberg, Hanna; Sundin, Anders; Khabut, Areej; Frejd, Torbjorn; Lobsanov, Yuri D.; Rini, James M.; et al, From Biochemistry (2010), 49(44), 9518-9532, (Salomonsson et al., 2010). […] 100 nM albumin was included as a carrier to prevent protein loss at such low concentration of galectin.
# Chain of galectin-3 (P17931 whole entry): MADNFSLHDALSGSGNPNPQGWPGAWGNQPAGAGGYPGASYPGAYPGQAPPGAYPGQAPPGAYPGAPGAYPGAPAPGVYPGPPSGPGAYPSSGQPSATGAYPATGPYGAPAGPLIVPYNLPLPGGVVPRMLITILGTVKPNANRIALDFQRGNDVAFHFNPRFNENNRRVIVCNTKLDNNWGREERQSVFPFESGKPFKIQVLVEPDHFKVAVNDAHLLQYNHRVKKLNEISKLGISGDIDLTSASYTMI
row,Structure (SMILES),pKd
1,"CO[C@@H]1[C@@H](n2cc(-c3cc(F)c(F)c(F)c3)nn2)[C@@H](O)[C@@H](CO)O[C@@H]1Sc1cc(-c2nccs2)cnc1-c1nccs1 [Example 32, 2,5-Bis(thiazol-2-yl)pyridin-3-yl 3-deoxy-3-[4-(3,4,5-trifluorophenyl)-1H-1,2,3-triazol-1-yl]-2-O-methyl-1-thio-α-D-galactopyranoside]",6.68
2,"CO[C@@H]1[C@@H](n2cc(-c3cc(F)c(Cl)c(F)c3)nn2)[C@@H](O)[C@@H](CO)O[C@@H]1Sc1cncc(Cl)c1 [Example 33, 5-Chloropyridin-3-yl 3-[4-(4-chloro-3,5-difluorophenyl)-1H-1,2,3-triazol-1-yl]-3-deoxy-2-O-methyl-1-thio-α-D-galactopyranoside]",7.51
3,"CO[C@@H]1[C@@H](n2cc(-c3cc(F)c(Cl)c(F)c3)nn2)[C@@H](O)[C@@H](CO)O[C@@H]1Sc1cncc(Br)c1 [Example 34, 5-Bromopyridin-3-yl 3-[4-(4-chloro-3,5-difluorophenyl)-1H-1,2,3-triazol-1-yl]-3-deoxy-2-O-methyl-1-thio-α-D-galactopyranoside]",7.68
4,"CO[C@@H]1[C@@H](n2cc(-c3ccc(Cl)c(F)c3)nn2)[C@@H](O)[C@@H](CO)O[C@@H]1Sc1cncc(Cl)c1 [Example 37, 5-Chloropyridin-3-yl 3-[4-(4-chloro-3-fluorophenyl)-1H-1,2,3-triazol-1-yl]-3-deoxy-2-O-methyl-1-thio-α-D-galactopyranoside]",7.38
5,"CO[C@@H]1[C@@H](n2cc(-c3ccc(Cl)c(F)c3)nn2)[C@@H](O)[C@@H](CO)O[C@@H]1Sc1cncc(Br)c1 [Example 38, 5-Bromopyridin-3-yl 3-[4-(4-chloro-3-fluorophenyl)-1H-1,2,3-triazol-1-yl]-3-deoxy-2-O-methyl-1-thio-α-D-galactopyranoside]",7.21
6,"CO[C@@H]1[C@@H](n2cc(-c3cc(F)c(Cl)c(F)c3)nn2)[C@@H](O)[C@@H](CO)O[C@@H]1Sc1cnc(C(F)(F)F)c(C)c1 [Example 39, 6-Trifluoromethyl-5-methylpyridin-3-yl 3-[4-(4-chloro-3,5-difluorophenyl)-1H-1,2,3-triazol-1-yl]-3-deoxy-2-O-methyl-1-thio-α-D-galactopyranoside]",6.55
7,"CO[C@@H]1[C@@H](n2cc(-c3cc(F)c(Cl)c(F)c3)nn2)[C@@H](O)[C@@H](CO)O[C@@H]1Sc1cc(Cl)ccc1C(=O)N1CCC1 [Example 40, 2-(N-azetidinyl-carbonyl)-5-chlorophenyl 3-[4-(4-chloro-3,5-difluorophenyl)-1H-1,2,3-triazol-1-yl]-3-deoxy-2-O-methyl-1-thio-α-D-galactopyranoside]",7.82
8,"CO[C@@H]1[C@@H](n2cc(-c3ccc(C)c(F)c3)nn2)[C@@H](O)[C@@H](CO)O[C@@H]1Sc1cc(Cl)ccc1C(=O)N1CCC1 [Example 41, 2-(N-azetidinyl-carbonyl)-5-chlorophenyl 3-deoxy-3-[4-(3-fluoro-4-methylphenyl)-1H-1,2,3-triazol-1-yl]-2-O-methyl-1-thio-α-D-galactopyranoside]",8.15
9,"CO[C@@H]1[C@@H](n2cc(-c3cc(F)c(F)c(F)c3)nn2)[C@@H](O)[C@@H](CO)O[C@@H]1Sc1cncc(Cl)c1 [Example 42, 5-Chloropyridin-3-yl 3-deoxy-3-[4-(3,4,5-trifluorophenyl)-1H-1,2,3-triazol-1-yl]-2-O-methyl-1-thio-α-D-galactopyranoside]",7.54
10,"CO[C@@H]1[C@@H](n2cc(-c3ccc(Cl)c(C)n3)nn2)[C@@H](O)[C@@H](CO)O[C@@H]1Sc1cncc(Cl)c1 [Example 44, 5-Chloropyridin-3-yl 3-[4-(5-chloro-6-methylpyridin-2-yl)-1H-1,2,3-triazol-1-yl]-3-deoxy-2-O-methyl-1-thio-α-D-galactopyranoside]",6.06
11,"CO[C@@H]1[C@@H](n2cc(-c3cc(F)c(F)c(F)c3)nn2)[C@@H](O)[C@@H](CO)O[C@@H]1Sc1cnc(C#N)c(Cl)c1 [Example 45, 3-Chloro-2-cyanopyridin-5-yl 3-deoxy-3-[4-(3,4,5-trifluorophenyl)-1H-1,2,3-triazol-1-yl]-2-O-methyl-1-thio-α-D-galactopyranoside]",7.19
